Results on three compounds are retold here after US7425635B2, “Prodrugs and conjugates of thiol- and selenol-containing compounds and methods of use thereof” (University of Utah Research Foundation, priority 1997, dated 2008).

One series deals with NNK lung tumor. The experiment in a line: NNK lung tumor four-month feeding study. Format: in vivo. The settings on record: mice, diet 15 ppm Se from 1 week prior to NNK (10 umol, ip), sacrificed after 16 weeks. Here is the method: (§1) Three novel selenazolidines, 2-methyl-, 2-oxo- and 2-unsubstituted (i.e., selenaproline) selenazolidine-4[R]-carboxylic acid (MSCA, OSCA, and SCA respectively) that had been synthesized as prodrugs of selenocysteine were evaluated for their potential to act as cancer chemopreventive agents. [Se] and GPx activity were evaluated.
(§2) Where indicated, mice (16 g) were given diets fortified with SCA, MSCA or OSCA (15 ppm Se) for 1 week prior to NNK (10 umol, ip). Two other groups received the unmodified AIN-76A diet, with and without NNK administration. All groups were maintained on their pretreatment diet until the animals were sacrificed after 16 weeks. Liver GPx activity is expressed as μmol NADPH oxidized [in regenerating GSH]/min/mg 10,000 g×20 min supernatant protein; RBC activity as μmol/min/mg RBC lysate hemoglobin.

A short description of series [1]: Body weight gain and liver weight in four-month feeding study. The settings on record: mice, diet 15 ppm Se, NNK. Type of series: in vivo. On the procedure: as §2
Series [2] has as its system GPx. The experiment in a line: Hepatic and RBC (tButylOOH) GPx activity in four-month feeding study. Type of series: in vivo. The settings on record: mice, diet 15 ppm Se, NNK; for Hepatic (tButylOOH) GPx: liver. On the procedure:
as §1, §2

The test system of another series is Ugt1a1. As to the kind of experiment: Northern blot of liver Ugt1a1 mRNA after ip dosing. Format: in vivo, mice. The settings on record: mean ± SEM. On the procedure: (§3) Linking efficacy to biochemical parameters and a mechanism was limited in the initial study by only two parameters, [Se] and GPx activity. The in-vivo effects of selenazolidine compounds were then evaluated using, in addition to GPx, glutathione S-transferases (GSTs), quinone oxidoreductases (NQORs), UDP-glucuronosyltransferases (UGTs), and microsomal epoxide hydrolase (mEH). To investigate transcriptional changes of these classes of enzymes, it was necessary to develop a battery of cDNA probes for use in Northern blot analysis of RNA extracted from treated animals (Table 2).
(§4) Whether the selenaproline compounds had the ability to up-regulate the transcription of Phase II and/or other “protective” enzymes was first evaluated following a single dose of each (Table 3). […] The experiment was repeated but with a 7-day treatment regimen (Table 4), the time period for which the compounds were given in the diet before NNK administration in the tumor experiment reported in Table 1. […] With multiple doses, SCA induced Ugt1a9, an mRNA that was not changed with a single dose. […] The elevation in the Gst-mu transcript was unique to multiple OSCA treatment. The elevation of the GST-alpha mRNA was also seen with SCA treatment. Microsomal epoxide hydrolase mRNA was robustly elevated by multiple doses of all three selenaproline compounds, an effect not anticipated from the single dose experiment where not even minor changes were apparent.

The test system of the next series is Ugt1a6. The experiment in a line: Northern blot of liver Ugt1a6 mRNA after ip dosing. Format: in vivo, mice. The settings on record: mean ± SEM. On the procedure:
as §3, §4

The subject of another series is Ugt1a9. As to the kind of experiment: Northern blot of liver Ugt1a9 mRNA after ip dosing. Format: in vivo, mice. The settings on record: 1.25 mg Se/kg, mean ± SEM. On the procedure:
as §3, §4

The test system of a further series is Gst-alpha. The experiment in a line: Northern blot of liver Gst-alpha mRNA after ip dosing. Format: in vivo, mice. The settings on record: mean ± SEM. On the procedure: as §3, §4
Another series concerns Gst-mu. The experiment in a line: Northern blot of liver Gst-mu mRNA after ip dosing. Format: in vivo, mice. The settings on record: mean ± SEM. On the procedure: as §3, §4
In the next series the test system is mEH. As to the kind of experiment: Northern blot of liver mEH mRNA after ip dosing. The settings on record: mean ± SEM. Format: in vivo, mice. Here is the method:
as §3, §4

Series [3] has as its system GPx. The experiment in a line: Northern blot of liver GPx mRNA after ip dosing. Type of series: in vivo, mice. The settings on record: mean ± SEM. Here is the method: as §3, §4
The subject of another series is GST. As to the kind of experiment: Hepatic cytosolic GST (CDNB) activity after 7 daily ip doses. Format: in vivo, mice. The settings on record: 7 daily doses ip, hepatic cytosol; naive 5248 ± 503.
Series [4] deals with GPx. As to the kind of experiment: Hepatic cytosolic GPx (H202) activity after 7 daily ip doses. The settings on record: 7 daily doses ip, hepatic cytosol; naive 894 ± 36. Format: in vivo, mice.
A short description of series [5]: sALT (hepatotoxicity) after 7 daily ip doses. The settings on record: 7 daily doses ip, 1.25 mg Se/kg, with corn oil; untreated mice 37.5 ± 2.9. Further details: unit not given here. Format: in vivo. An excerpt:
Many of the mRNA changes seen with a single dose were not sustained with multiple dosing. Changes in Ugt transcripts after multiple dosing were noticeably absent. Unique to BSCA among the four new compounds investigated was its ability to induce Gst-alpha, Gst-mu and GPx mRNAs. For the Gst-alpha transcripts, which appeared elevated by corn oil, the BSCA increase was much greater than the vehicle alone (8-fold versus 2-fold) and was statistically significant (p<0.05). BSCA shared with PhOHSCA the ability to elevate mEH mRNA.

Series [6] can be described thus: Stability in aqueous solution. Format: physicochemical. The settings on record: compared with MSCA; previous studies. An excerpt:
Accordingly, additional compounds were synthesized with a range of partition coefficients (Table 6) and evaluated their ability to alter gene transcription following single (Table 7) and multiple (Table 8) doses. The new 2-(R,S)-substituted-4(R)-carboxylic acid derivatives involving 2-butyl, 2-cyclohexyl, 2-phenyl and 2-(2-hydroxyphenyl) were synthesized utilizing the reaction of selenocysteine and the appropriate carboxaldehyde. They were purified by crystallization from ethanol/acetonitrile mixtures and their molecular structures were verified by spectral methods of analysis (′HNMR, ^13CNMR, ESIMs and HRMS).

[7] abbreviates: 1 dose ip, 1.25 mg Se/kg, liver RNA 24 hours after dosing.
The mark [8] stands for this setting: 7 daily doses ip, 1.25 mg Se/kg, liver RNA 24 hours after the last dose.
Where [9] appears, read: 1 dose ip, liver RNA 24 hours after dosing.
The mark [10] stands for this setting: 1 dose ip, 1.25 mg Se/kg in corn oil, liver RNA 24 hours after dosing.
The mark [11] stands for this setting: 7 daily doses ip, 1.25 mg Se/kg, with corn oil, liver RNA 24 hours after the last dose.

In the case of `CC1N[C@H](C(=O)O)C[Se]1` (mixture of isomers) [MSCA, 2(R,S)-Methylselenazolidine-4(R)-carboxylic acid], the “NNK Tumors” value in the series on NNK lung tumor is reported as 8.3 ± 0.9. In addition, the “Body wt gain (%)” value in series [1] is 49.3%. Further, the “Liver weight” value in series [1] was 1.17 ± 0.02 g. In the series with GPx [2], the “RBC (tButylOOH) GPx” value is 220 ± 32 μmol/min/mg RBC lysate hemoglobin. Also, the “Hepatic (tButylOOH) GPx” value in the series with GPx [2] is on record as 564 ± 46 μmol NADPH oxidized/min/mg 10,. In addition, the “Ugt1a1 mRNA” value came to 1.07 ± 0.11 fold change from naive with Ugt1a1 (setting [7]) and 1.15 ± 0.09 fold change from naive in the series with Ugt1a1 (setting [8]). Further, the “Ugt1a6 mRNA” value is given as 1.21 ± 0.28 fold change from naive with Ugt1a6 (setting [7]) and 1.02 ± 0.15 fold change from naive in the series with Ugt1a6 (setting [8]). In addition, the “Ugt1a9 mRNA” value in the series with Ugt1a9 (setting [9]) came out at 1.47 ± 0.18 fold change from naive; with Ugt1a9 (7 daily doses ip, liver RNA 24 hours after the last dose), 1.22 ± 0.29 fold change from naive. The entries for the “Gst-alpha mRNA” value in the series on Gst-alpha (setting [7]) and with Gst-alpha (setting [8]) were 1.00 ± 0.19 fold change from naive and 1.18 ± 0.33 fold change from naive, respectively. In addition, the “Gst-mu mRNA” value with Gst-mu (setting [7]) amounted to 1.07 ± 0.57 fold change from naive; with Gst-mu (setting [8]) it was 1.65 ± 0.18 fold change from naive. In addition, the “mEH mRNA” value with mEH (setting [7]) was determined as 1.06 ± 0.12 fold change from naive; in the series on mEH (setting [8]) it was 3.35 ± 1.21 fold change from naive. The “GPx (1.5 kb) mRNA” value in the series with GPx [3] (setting [7]) was 1.65 ± 0.27 fold change from naive. Moreover, in the series with GPx [3] (setting [8]), the “GPx mRNA” value worked out at 1.43 ± 0.35 fold change from naive. In addition, the “GST (CDNB) activity” value with GST is recorded as 6948 ± 502 nmol/mg cytosol (100,000 g supernatant) protein/min. For the same compound, in the series on GPx [4], the “GPx (H202) activity” value was 944 ± 32 nmol/mg cytosol (100,000 g supernatant) protein/min.

In the case of `CCCCC1NC(C(=O)O)C[Se]1` (stereo not drawn) [BSCA, 2-n-butyl-SCA], the “Ugt1a1 mRNA” value with Ugt1a1 (setting [10]) is recorded as 0.83 ± 0.28 fold change from naive; with Ugt1a1 (setting [11]), 1.21 ± 0.26 fold change from naive. Also, the “Ugt1a6 mRNA” value in the series with Ugt1a6 (setting [10]) is reported as 1.95 ± 0.21 fold change from naive; in the series with Ugt1a6 (setting [11]), 1.84 ± 0.54 fold change from naive. The “Ugt1a9 mRNA” value in the series with Ugt1a9 (7 daily doses ip, with corn oil, liver RNA 24 hours after the last dose) turned out to be 1.69 ± 0.35 fold change from naive. Moreover, the “Gst-alpha mRNA” value in the series with Gst-alpha (setting [10]) came out at 1.39 ± 0.05 fold change from naive. Moreover, the “Gst-mu mRNA” value with Gst-mu (setting [10]) was 1.58 ± 0.46 fold change from naive. In addition, in the series on mEH (setting [10]), the “mEH mRNA” value came out at 0.69 ± 0.19 fold change from naive. The “GPx mRNA” value in the series on GPx [3] (setting [10]) came to 1.58 ± 0.46 fold change from naive. The sALT in [5] worked out at 37.1 ± 2.7. Also, the “Stability in aqueous solution” value in series [6] is “much more stable in aqueous solution than MSCA”.

With `O=C(O)C1C[Se]CN1` (stereo not drawn) [SCA, selenazolidine-4-carboxylic acid], the “NNK Tumors” value in the series on NNK lung tumor worked out at 6.7 ± 0.8. In series [1], the “Body wt gain (%)” value was 51.1%. Also, the “Liver weight” value in series [1] was found to be 1.18 ± 0.02 g. For the same compound, the “RBC (tButylOOH) GPx” value with GPx [2] is on record as 253 ± 33 μmol/min/mg RBC lysate hemoglobin. Besides, in the series on GPx [2], the “Hepatic (tButylOOH) GPx” value is 409 ± 46 μmol NADPH oxidized/min/mg 10,. Also, the “Ugt1a1 mRNA” value in the series with Ugt1a1 (setting [7]) came out at 1.03 ± 0.18 fold change from naive; in the series with Ugt1a1 (setting [8]), 2.25 ± 0.25 fold change from naive. Moreover, the “Ugt1a6 mRNA” value amounted to 1.01 ± 0.29 fold change from naive in the series with Ugt1a6 (setting [7]) and 1.01 ± 0.07 fold change from naive with Ugt1a6 (setting [8]). In the series on Ugt1a9 (setting [9]), the “Ugt1a9 mRNA” value came to 1.35 ± 0.50 fold change from naive. The “Gst-alpha mRNA” value with Gst-alpha (setting [7]) was determined as 1.15 ± 0.28 fold change from naive. Also, the “Gst-mu mRNA” value in the series with Gst-mu (setting [7]) is reported as 1.28 ± 0.09 fold change from naive; in the series with Gst-mu (setting [8]), 0.58 ± 0.11 fold change from naive. Also, the “mEH mRNA” value with mEH (setting [7]) came out at 1.36 ± 0.40 fold change from naive; with mEH (setting [8]), 3.25 ± 1.80 fold change from naive. Moreover, the “GPx (1.5 kb) mRNA” value in the series on GPx [3] (setting [7]) came out at 1.12 ± 0.04 fold change from naive. Moreover, the “GPx mRNA” value with GPx [3] (setting [8]) came out at 1.55 ± 0.76 fold change from naive. Also, the “GST (CDNB) activity” value in the series on GST is on record as 6576 ± 595 nmol/mg cytosol (100,000 g supernatant) protein/min. Also, the “GPx (H202) activity” value with GPx [4] is given as 862 ± 81 nmol/mg cytosol (100,000 g supernatant) protein/min.
